According to US20260159618A1, “COMPOUND, POLYMERIZABLE COMPOSITION, POLYMER, HOLOGRAPHIC RECORDING MEDIUM, OPTICAL MATERIAL, AND OPTICAL COMPONENT” (Mitsubishi Chemical Corporation, priority 2022, published 2026):
Where two headings read alike, the source gives them in different places.

Assays:
[1] = prior-art compounds, background art; cited from earlier work
[2] = Refractive index measurement of polymerizable monomer (Kalnew precision refractometer); assay type: physicochemical; set-up: key to Refractive Index (dash symbol): ⊚: 0.019 or more; ◯: 0.015 or more and less than 0.019; Δ: 0.010 or more and less than 0.015; x: less than 0.010; —: impossible to measure; conditions: for Refractive Index: 23° C., helium lamp d-line (587.6 nm), calculated for 100% by mass from calibration curve of 10 and 20% by mass test solutions; for Refractive Index (dash symbol): sample not suitable for refractive index measurement
Procedure: The refractive index of the compound M-1 was measured using the following method. The refractive indexes of the polymerizable monomers produced in the Examples and Comparative Examples were also measured using the same method.
A test solution was prepared by dissolving the sample in a mixed solution of 3-phenoxybenzyl acrylate and trimethylolpropane trimethacrylate in a mass ratio of 4:1 to obtain the specified concentration.
Two types of test solutions were prepared, with sample concentrations of 10% by mass and 20% by mass.
The refractive index of each test solution was measured using a Kalnew precision refractometer (manufactured by Shimadzu Corporation, product name: KPR-2000). The temperature of the test solution was 23° C., and the measurement wavelength was helium lamp d-line (587.6 nm). Based on the measurement results, a calibration curve showing the correlation between sample concentration and refractive index was created, and the refractive index when the sample concentration was 100% by mass was calculated from the obtained calibration curve, and was taken as the refractive index of the sample.

[3] = Solubility in Duranate TSS-100, visual observation; assay type: physicochemical; conditions: 0.63 g monomer dissolved in 2.53 g Duranate TSS-100, visually observed
Procedure: (§1) When 0.63 g of polymerizable monomers M-1 to M-11 and R-1 to R-4 were dissolved in 2.53 g of Duranate (registered trademark) TSS-100, the state of the solution was visually observed and the solubility was evaluated as ∘ (completely dissolved), Δ (cloudy), or x (solid remaining in solution). In addition, the state of each solution was visually observed when it was stored at room temperature for 10 days and the storage stability was evaluated as ∘ (completely dissolved), Δ (cloudy), or x (solid remaining in solution).

[4] = Storage stability of the TSS-100 solution, visual observation; assay type: physicochemical; set-up: key: ∘: completely dissolved; Δ: cloudy; x: solid remaining in solution; conditions: solution in Duranate TSS-100 stored at room temperature for 10 days, visually observed
Procedure: as §1

| SMILES | Refractive Index [1] | Refractive Index [2] | Solubility [3] | Storage Stability [4] | Refractive Index (dash symbol) [2] |
| --- | --- | --- | --- | --- | --- |
| C=CC(=O)OCCOc1ccc(C2(c3ccc(OCCOC(=O)C=C)cc3)c3ccccc3-c3ccccc32)cc1 [9,9-bis[4-(2-acryloyloxyethoxy)phenyl]fluorene] | about 1.62 |  |  |  |  |
| C=C(C)C(=O)OCCNC(=O)Oc1c(-c2cccc3c2sc2ccccc23)cc(-c2cccc3c2sc2ccccc23)cc1-c1cccc2c1sc1ccccc12 [Compound M-1] |  | 1.6818 | ◯ | ◯ |  |
| C=C(C)C(=O)OCCNC(=O)Oc1c(-c2cc3ccccc3c3ccccc23)cc(-c2cc3ccccc3c3ccccc23)cc1-c1cc2ccccc2c2ccccc12 [Compound M-2] |  | 1.6898 | ◯ | ◯ |  |
| C=CC(=O)OCCNC(=O)Oc1c(-c2cccc3c2sc2ccccc23)cc(-c2cccc3c2sc2ccccc23)cc1-c1cccc2c1sc1ccccc12 [Compound M-3] |  | 1.6891 | ◯ | ◯ |  |
| C=CC(=O)OCCNC(=O)Oc1c(-c2cc3ccccc3c3ccccc23)cc(-c2cc3ccccc3c3ccccc23)cc1-c1cc2ccccc2c2ccccc12 [Compound M-4] |  | 1.6894 | ◯ | ◯ |  |
| C=C(C)C(=O)OCCNC(=O)Oc1c(-c2ccc3ccccc3c2)cc(-c2ccc3ccccc3c2)cc1-c1ccc2ccccc2c1 [Compound M-5] |  | 1.6798 | ◯ | ◯ |  |
| C=C(C)C(=O)OCCOCCNC(=O)Oc1c(-c2cc3ccccc3c3ccccc23)cc(-c2cc3ccccc3c3ccccc23)cc1-c1cc2ccccc2c2ccccc12 [Compound M-6] |  | 1.7013 | ◯ | ◯ |  |
| C=CC(=O)OCCNC(=O)OCCOc1c(-c2cc3ccccc3c3ccccc23)cc(-c2cc3ccccc3c3ccccc23)cc1-c1cc2ccccc2c2ccccc12 [Compound M-7] |  | 1.7104 | ◯ | ◯ |  |
| C=C(C)C(=O)OCCNC(=O)OCCOc1c(-c2cc3ccccc3c3ccccc23)cc(-c2cc3ccccc3c3ccccc23)cc1-c1cc2ccccc2c2ccccc12 [Compound M-8] |  | 1.7042 | ◯ | ◯ |  |
| C=C(C)C(=O)OCCOCCNC(=O)OCCOc1c(-c2cc3ccccc3c3ccccc23)cc(-c2cc3ccccc3c3ccccc23)cc1-c1cc2ccccc2c2ccccc12 [Compound M-9] |  | 1.6975 | ◯ | ◯ |  |
| C=CC(=O)OCCOc1c(-c2cc3ccccc3c3ccccc23)cc(-c2cc3ccccc3c3ccccc23)cc1-c1cc2ccccc2c2ccccc12 [Compound M-10] |  | 1.7323 | ◯ | ◯ |  |
| C=CC(=O)OCCCOc1c(-c2cc3ccccc3c3ccccc23)cc(-c2cc3ccccc3c3ccccc23)cc1-c1cc2ccccc2c2ccccc12 [Compound M-11] |  | 1.7316 | ◯ | ◯ |  |
| C=CC(=O)OCCNC(=O)Oc1ccc(-c2cccc3c2sc2ccccc23)cc1-c1cccc2c1sc1ccccc12 [Compound R-1, reference compound] |  | 1.6762 |  | Δ |  |
| C=CC(=O)Oc1c(-c2cccc3c2sc2ccccc23)cc(-c2cccc3c2sc2ccccc23)cc1-c1cccc2c1sc1ccccc12 [Compound R-2, reference compound] |  | 1.7056 |  | Δ |  |
| C=CC(=O)OCCOc1c(-c2cccc3c2sc2ccccc23)cc(-c2cccc3c2sc2ccccc23)cc1-c1cccc2c1sc1ccccc12 [Compound R-3, reference compound] |  |  |  |  | — |
| C=CC(=O)OCCCCOc1c(-c2cccc3c2sc2ccccc23)cc(-c2cccc3c2sc2ccccc23)cc1-c1cccc2c1sc1ccccc12 [Compound R-4, reference compound] |  |  |  |  | — |
